Measurements: patent US20200323888A1, “INHIBITORS” (VESTLANDETS INNOVASJONSSELSKAP AS, priority 2017, published 2020)
Square brackets hold non-standard residues; d marks the D form. Ends that are not written are not given here. Nle = CCCC[C@H](N)C(=O)O; CoA = coenzyme A

Assays:
Naa10 = molecular target: T1, Naa10 (Homo sapiens, UniProt P41227); assay: Nt-acetylation inhibitor assay (DTNB), Naa10; format: biochemical; details: selectivity, panel of human NATs
T1 sequence (P41227 1-235): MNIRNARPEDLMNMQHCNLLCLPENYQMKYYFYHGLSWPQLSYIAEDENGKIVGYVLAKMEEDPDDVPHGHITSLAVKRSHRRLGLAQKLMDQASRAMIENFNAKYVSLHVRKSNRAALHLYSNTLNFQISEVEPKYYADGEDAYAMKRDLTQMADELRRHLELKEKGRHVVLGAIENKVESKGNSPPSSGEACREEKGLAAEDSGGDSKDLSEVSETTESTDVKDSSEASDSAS
Experimental: The IC50 values for these compounds were tested as described in Foyn H, et al. (2013) “Design, Synthesis, and Kinetic Characterization of Protein N-Terminal Acetyltransferase Inhibitors”. ACS Chem Biol 8:1121-1127; and Foyn H, et al. (2017) “DTNB-Based quantification of in vitro enzymatic N-terminal acetyltransferase activity”, Methods Mol. Biol. 1574:9-15. Briefly, a colorimetric acetylation assay, 5,5′-dithiobis-(2-nitrobenzoic acid) (DTNB) assay was used to measure the catalytic activity of NATs after incubation with NAT inhibitors. […] Therefore, NTB- was quantified by measuring the absorbance at 412 nm and indirectly measures peptide Nt-acetylation. […] In order to measure CoA production, 2 mM DTNB (dissolved in 100 mM sodium phosphate dibasic pH 6.8 and 10 mM EDTA) was added to the quenched reaction and the absorbance at 412 nm was measured with a spectrophotometer (Epoc). Background absorbance (determined in negative controls) was subtracted from the absorbance determined in each individual reaction. Thiophenolate production was quantified assuming ε=13.7×103 M−1 cm−1. […] A similar Nt-acetylation reaction was performed as previously described and the enzymatic activity was quenched with a final concentration of 1% TFA and analyzed by HPLC (Evjenth R, Van Damme P, Gevaert K, Arnesen T (2013) HPLC-based Quantification of in vitro N-terminal Acetylation. Methods Mol Biol 981:95-102.). […]

Naa80 = molecular target: T2, Naa80 (Homo sapiens, UniProt Q93015); assay: Nt-acetylation inhibitor assay for Naa80; format: biochemical
T2 construct: The PCR product containing the CDS was inserted into the TOPO TA vector; made in house; host or cells: E. coli BL21 Star (DE3)
T2 sequence (Q93015 1-308 isoform Q93015-2): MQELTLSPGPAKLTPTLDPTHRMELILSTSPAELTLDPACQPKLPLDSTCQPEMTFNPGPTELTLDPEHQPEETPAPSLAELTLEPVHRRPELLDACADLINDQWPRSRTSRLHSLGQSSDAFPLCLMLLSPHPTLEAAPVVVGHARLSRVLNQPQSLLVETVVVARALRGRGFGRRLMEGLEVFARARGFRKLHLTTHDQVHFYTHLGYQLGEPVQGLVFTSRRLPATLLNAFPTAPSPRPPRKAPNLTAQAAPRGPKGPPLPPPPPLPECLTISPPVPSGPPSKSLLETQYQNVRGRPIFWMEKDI
Experimental: FIG. 10: (A) IC50 values for inhibitors measured in an Nt-acetylation inhibitor assay for Naa80. (B) Ki-values for CoA-Ac-DDDI-NH2 (SEQ ID NO: 6) for different human NATs measured in an Nt-acetylation inhibitor assay. All reactions were performed at least three times and in triplicate; errors bars represent standard deviation of each measurement.
The IC50 values for these compounds were tested as described in Foyn H, et al. (2013) “Design, Synthesis, and Kinetic Characterization of Protein N-Terminal Acetyltransferase Inhibitors”. ACS Chem Biol 8:1121-1127; and Foyn H, et al. (2017) “DTNB-Based quantification of in vitro enzymatic N-terminal acetyltransferase activity”, Methods Mol. Biol. 1574:9-15. Briefly, a colorimetric acetylation assay, 5,5′-dithiobis-(2-nitrobenzoic acid) (DTNB) assay was used to measure the catalytic activity of NATs after incubation with NAT inhibitors. In the DTNB assay, thiols present in the enzymatic product, CoA, cleaves DTNB and produces 2-nitro-5-thiobenzoate (NTB-), which absorbs light with a wavelength of 412 nm. NTB- forms in a 1:1 molar ratio to the thiol groups present in the sample. Therefore, NTB- was quantified by measuring the absorbance at 412 nm and indirectly measures peptide Nt-acetylation. […] After 30 min-60 min incubation at 37° C., the enzyme activity was quenched with quenching buffer (3.2 M guanidinium-HCl, 100 mM sodium phosphate dibasic pH 6.8). Triplicates were run for all positive samples, while negative controls were duplicated. As a negative control, reactions without enzyme were incubated at 37° C. before the reaction was quenched and added enzyme. In order to measure CoA production, 2 mM DTNB (dissolved in 100 mM sodium phosphate dibasic pH 6.8 and 10 mM EDTA) was added to the quenched reaction and the absorbance at 412 nm was measured with a spectrophotometer (Epoc). Background absorbance (determined in negative controls) was subtracted from the absorbance determined in each individual reaction. Thiophenolate production was quantified assuming ε=13.7×103 M−1 cm−1. For NatA and NatB enzyme complex inhibition, immunoprecipitation was performed using Naa15 ab (custom made, Arnesen T, Anderson D, Baldersheim C, Lanotte M, Varhaug J E, Lillehaug J R. (2005) Identification and characterization of the human ARD1-NATH protein acetyltransferase complex. Biochemical J 386(Pt 3):433-43.) or Naa20 ab (Nat5, abnova) respectively and protein A/G magnetic agarose beads (Millipore). A similar Nt-acetylation reaction was performed as previously described and the enzymatic activity was quenched with a final concentration of 1% TFA and analyzed by HPLC (Evjenth R, Van Damme P, Gevaert K, Arnesen T (2013) HPLC-based Quantification of in vitro N-terminal Acetylation. Methods Mol Biol 981:95-102.).
We then pursued Naa80 bisubstrate analogue inhibitors based on the results of the substrate screening and the sequences of the cellular substrates processed β- and γ-actin. We synthesized bisubstrate conjugates of Coenzyme A coupled to the tetrapeptides MDEL-NH2 (SEQ ID NO: 8), DDDI-NH2 (SEQ ID NO: 6), EEEI-NH2 (SEQ
ID NO: 7), and MLGT-NH2 (SEQ ID NO: 52) via an acetamide (Ac) linker.
The following additional Naa80 bisubstrate analogue inhibitors were produced and tested as described above: […]

NatA = molecular target: T3, NatA (Homo sapiens, UniProt P41227); assay: Nt-acetylation inhibitor assay, immunoprecipitated NatA complex, HPLC quantification; format: biochemical; details: inhibitors tested against NatA; all compounds with C-terminal amide
T3 construct: endogenous in cells
T3 sequence (P41227 1-235): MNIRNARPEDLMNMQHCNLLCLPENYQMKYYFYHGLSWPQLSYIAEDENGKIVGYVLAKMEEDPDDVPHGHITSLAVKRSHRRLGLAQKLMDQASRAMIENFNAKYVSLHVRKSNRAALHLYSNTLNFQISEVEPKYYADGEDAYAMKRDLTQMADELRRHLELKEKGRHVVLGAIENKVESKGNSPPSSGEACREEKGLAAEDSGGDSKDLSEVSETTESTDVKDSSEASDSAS
T3 sequence (Q9BXJ9 1-866 partner): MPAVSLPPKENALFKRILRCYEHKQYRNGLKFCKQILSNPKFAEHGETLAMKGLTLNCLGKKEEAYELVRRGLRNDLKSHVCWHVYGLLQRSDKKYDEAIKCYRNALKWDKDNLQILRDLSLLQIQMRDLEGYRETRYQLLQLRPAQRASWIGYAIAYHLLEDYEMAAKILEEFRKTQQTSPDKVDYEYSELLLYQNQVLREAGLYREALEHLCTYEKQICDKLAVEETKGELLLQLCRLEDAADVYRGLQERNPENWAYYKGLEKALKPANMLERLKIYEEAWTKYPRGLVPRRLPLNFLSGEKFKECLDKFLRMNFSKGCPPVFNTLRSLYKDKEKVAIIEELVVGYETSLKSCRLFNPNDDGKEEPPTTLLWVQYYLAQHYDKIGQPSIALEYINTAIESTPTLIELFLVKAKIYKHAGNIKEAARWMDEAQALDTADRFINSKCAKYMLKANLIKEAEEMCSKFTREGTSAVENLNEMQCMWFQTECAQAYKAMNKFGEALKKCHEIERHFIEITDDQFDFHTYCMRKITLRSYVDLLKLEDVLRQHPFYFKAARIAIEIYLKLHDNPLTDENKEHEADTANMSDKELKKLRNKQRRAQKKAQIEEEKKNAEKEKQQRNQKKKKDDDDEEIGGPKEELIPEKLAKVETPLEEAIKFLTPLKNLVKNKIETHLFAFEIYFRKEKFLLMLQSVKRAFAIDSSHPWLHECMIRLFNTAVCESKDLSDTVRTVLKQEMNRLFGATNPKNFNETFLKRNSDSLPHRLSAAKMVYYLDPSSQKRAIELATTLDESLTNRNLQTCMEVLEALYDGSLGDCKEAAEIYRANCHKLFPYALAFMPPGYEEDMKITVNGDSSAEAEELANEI
Experimental: The IC50 values for these compounds were tested as described in Foyn H, et al. (2013) “Design, Synthesis, and Kinetic Characterization of Protein N-Terminal Acetyltransferase Inhibitors”. ACS Chem Biol 8:1121-1127; and Foyn H, et al. (2017) “DTNB-Based quantification of in vitro enzymatic N-terminal acetyltransferase activity”, Methods Mol. Biol. 1574:9-15. Briefly, a colorimetric acetylation assay, 5,5′-dithiobis-(2-nitrobenzoic acid) (DTNB) assay was used to measure the catalytic activity of NATs after incubation with NAT inhibitors. In the DTNB assay, thiols present in the enzymatic product, CoA, cleaves DTNB and produces 2-nitro-5-thiobenzoate (NTB-), which absorbs light with a wavelength of 412 nm. NTB- forms in a 1:1 molar ratio to the thiol groups present in the sample. Therefore, NTB- was quantified by measuring the absorbance at 412 nm and indirectly measures peptide Nt-acetylation. Recombinant purified NAT enzyme was mixed with different substrate peptides (300 uM, custom-made) and Ac-CoA (300 uM) in acetylation buffer (50 mM Tris/HEPES pH 8.5-7.4, 100 mM NaCl, 10% glycerol and 0.2 mM EDTA) and with inhibitor concentration (0-500 uM). After 30 min-60 min incubation at 37° C., the enzyme activity was quenched with quenching buffer (3.2 M guanidinium-HCl, 100 mM sodium phosphate dibasic pH 6.8). Triplicates were run for all positive samples, while negative controls were duplicated. As a negative control, reactions without enzyme were incubated at 37° C. before the reaction was quenched and added enzyme. In order to measure CoA production, 2 mM DTNB (dissolved in 100 mM sodium phosphate dibasic pH 6.8 and 10 mM EDTA) was added to the quenched reaction and the absorbance at 412 nm was measured with a spectrophotometer (Epoc). Background absorbance (determined in negative controls) was subtracted from the absorbance determined in each individual reaction. Thiophenolate production was quantified assuming ε=13.7×103 M−1 cm−1. […] A similar Nt-acetylation reaction was performed as previously described and the enzymatic activity was quenched with a final concentration of 1% TFA and analyzed by HPLC (Evjenth R, Van Damme P, Gevaert K, Arnesen T (2013) HPLC-based Quantification of in vitro N-terminal Acetylation. Methods Mol Biol 981:95-102.).
In order to ensure selectivity towards NatA, the CoA-Ac-SSNIeP (SEQ ID NO: 4) was tested against other NATs. Using the Cheng-Prusoff equation for competitive inhibitors, the dissociation constant, Ki, was calculated from IC50 values and [S]/Km ratios for all the NATs.

zebrafish embryos = assay: Phenotype after injection into zebrafish embryos; format: in vivo; details: injected into zebrafish embryos; compared with reference inhibitor
Source text: A norleucine (Nle) residue was therefore tried in place of methionine in order to try to circumvent the synthesis problem.

DDDI24 = molecular target: T4, DDDI24
T4 chain: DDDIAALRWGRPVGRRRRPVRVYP

MDEL24 = molecular target: T5, MDEL24
T5 chain: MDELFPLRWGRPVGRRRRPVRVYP

MDDD24 = molecular target: T6, MDDD24
T6 chain: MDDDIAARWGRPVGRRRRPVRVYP

## CC[C@H](C)[C@H](NC(=O)[C@H](CC(=O)O)NC(=O)[C@H](CC(=O)O)NC(=O)[C@H](CC(=O)O)NC(=O)CSCCNC(=O)CCNC(=O)C(O)C(C)(C)COP(=O)(O)OP(=O)(O)OCC1OC(n2cnc3c(N)ncnc32)C(O)C1OP(=O)(O)O)C(N)=O (stereo partly drawn) [CoA-Ac-DDDI-NH2]
Naa10
  reduced potency for Naa10 compared to Naa80: 88 fold
Naa80; Naa80
  IC50: 0.38 µM
Naa80; ratio of IC50 values
  more potent Naa80 inhibitor than CoA-Ac-EEEI-NH2: 3 fold
  more potent Naa80 inhibitor than CoA-Ac-MDEL-NH2: 3.3 fold

## CCCC[C@H](NC(=O)[C@H](CO)NC(=O)[C@@H]1CCCN1C(=O)CSCCNC(=O)CCNC(=O)C(O)C(C)(C)COP(=O)(O)OP(=O)(O)OCC1OC(n2cnc3c(N)ncnc32)C(O)C1OP(=O)(O)O)C(=O)N1CCC[C@H]1C(N)=O (stereo partly drawn) [CoA-Ac-PS(Nle)P]
NatA
  IC50: > 1000 µM

## CoA-Ac-SSNlePK-folic acid: CoA-Ac-SS(Nle)PK (SEQ ID NO: 23) carrying folic acid as targeting moiety ({CoA-Ac}-SS[Nle]PK; not fully specified (C-terminus); also: folic acid conjugate as targeting moiety, site not given here)
Zebrafish embryos
  phenotype in zebrafish: comparable phenotypes as CoA-Ac-SSNleP-NH2

B1: MBP-HishNAA80 fusion protein (MBP-Naa80) (protein)
chain: MQELTLSPGPAKLTPTLDPTHRMELILSTSPAELTLDPACQPKLPLDSTCQPEMTFNPGPTELTLDPEHQPEETPAPSLAELTLEPVHRRPELLDACADLINDQWPRSRTSRLHSLGQSSDAFPLCLMLLSPHPTLEAAPVVVGHARLSRVLNQPQSLLVETVVVARALRGRGFGRRLMEGLEVFARARGFRKLHLTTHDQVHFYTHLGYQLGEPVQGLVFTSRRLPATLLNAFPTAPSPRPPRKAPNLTAQAAPRGPKGPPLPPPPPLPECLTISPPVPSGPPSKSLLETQYQNVRGRPIFWMEKDI
DDDI24
  substrate ranking by product formation: its cellular substrate, processed β-actin, DDDI24 (SEQ ID NO: 41) ranked third
MDEL24
  product formation, fold higher compared to the second best substrate MDDD24: a 5-fold higher product formation compared to the second best substrate, MDDD24
MDDD24
  substrate ranking by product formation: the second best substrate, MDDD24
